Measurements reported in ChEMBL document CHEMBL1128205, “Design and synthesis of conformationally constrained analogues of 4-(3-butoxy-4-methoxybenzyl)imidazolidin-2-one (Ro 20-1724) as potent inhibitors of cAMP-specific phosphodiesterase” (J Med Chem, 1995).

Target: 3',5'-cyclic-AMP phosphodiesterase 4B (Homo sapiens, UniProt Q07343)
Experiment: Inhibition of human Phosphodiesterase 4B

3',5'-cyclic-AMP phosphodiesterase 4B, sequence (Q07343 whole entry): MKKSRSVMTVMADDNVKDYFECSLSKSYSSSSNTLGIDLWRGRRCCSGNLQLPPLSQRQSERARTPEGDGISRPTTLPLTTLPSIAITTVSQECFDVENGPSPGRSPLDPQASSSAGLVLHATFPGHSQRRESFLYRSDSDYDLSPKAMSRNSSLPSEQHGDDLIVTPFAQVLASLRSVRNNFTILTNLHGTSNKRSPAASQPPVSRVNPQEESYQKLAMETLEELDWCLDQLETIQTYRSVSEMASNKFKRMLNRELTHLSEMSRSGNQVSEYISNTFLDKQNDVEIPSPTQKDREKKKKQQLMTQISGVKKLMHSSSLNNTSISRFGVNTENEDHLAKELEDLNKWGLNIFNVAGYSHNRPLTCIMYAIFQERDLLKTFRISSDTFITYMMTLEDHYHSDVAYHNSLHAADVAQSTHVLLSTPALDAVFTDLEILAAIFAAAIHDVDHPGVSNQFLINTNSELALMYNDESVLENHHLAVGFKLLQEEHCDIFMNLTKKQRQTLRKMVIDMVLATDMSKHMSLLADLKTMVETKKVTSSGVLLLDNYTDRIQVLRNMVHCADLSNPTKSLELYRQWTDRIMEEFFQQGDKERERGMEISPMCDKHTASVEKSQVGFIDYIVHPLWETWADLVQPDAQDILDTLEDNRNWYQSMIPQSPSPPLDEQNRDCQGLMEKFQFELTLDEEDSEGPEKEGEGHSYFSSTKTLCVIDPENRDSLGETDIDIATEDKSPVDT

Row | Structure (SMILES) | Ki [µM]
1 | COc1ccc(CC2CNC(=O)N2)cc1OC1CCCC1 (stereo not given) | 0.447
2 | COc1ccc([C@H]2CCN3C(=O)OC[C@H]23)cc1OC1CCCC1 | 0.07
3 | COc1ccc([C@H]2CCN3C(=O)CC[C@H]23)cc1OC1CCCC1 | 0.063
4 | COc1ccc([C@H]2CCN3C(=O)CC[C@@H]23)cc1OC1CCCC1 | 0.338
5 | COc1ccc([C@H]2CCN3C(=O)NC[C@@H]23)cc1OC1CCCC1 | 0.583
6 | COc1ccc([C@H]2CCN3C(=O)NC[C@H]23)cc1OC1CCCC1 | 0.027
7 | COc1ccc([C@H]2CCN3C(=O)OC[C@@H]23)cc1OC1CCCC1 | 0.282

Organism: Homo sapiens
Experiment: Inhibition of LPS-induced TNF-alpha secretion from purified human peripheral blood monocytes
Format: functional

Row | Structure (SMILES) | IC50 [µM]
8 | COc1ccc(C2CNC(=O)C2)cc1OC1CCCC1 (stereo not given) [ROLIPRAM] | 0.32
9 | COc1ccc([C@H]2CCN3C(=O)NC[C@H]23)cc1OC1CCCC1 | 0.29
10 | CCCCOc1cc(CC2CNC(=O)N2)ccc1OC (stereo not given) [RO-201724] | 1.8
